Among the data in BindingDB's records for doi:10.7270/Q2959G0B (Nmmlsc, 2009) are EC50 values, retold here.

The structures appear in SMILES notation.

The target of the assay is Ras-related C3 botulinum toxin substrate 1 (Mus musculus, UniProt P63001). The experiment in a line: Rac1 wildtype GTP binding inhibitors, SAR follow-up, biochemical, pyrazoline analogs, multiplex, flow cytometry, Ki (AID 2055). Particulars: inactive by the depositor's call. Background: In flow cytometry, cells or beads pass a laser one at a time.

What is called EC50 is the concentration giving half of the maximal effect. Low readings indicate an effect from little substance, high ones a need for much substance. `COc1cccc(C2CC(c3ccccc3)=NN2c2ccc(S(N)(=O)=O)cc2)c1` (centres undefined) [4-[3-(3-methoxyphenyl)-5-phenyl-3,4-dihydropyrazol-2-yl]benzenesulfonamide] had an EC50 of 30 µM.

As for `COc1ccc(C2CC(c3cccc(OC)c3)=NN2c2ccc(S(N)(=O)=O)cc2)cc1` (centres undefined) [4-[5-(3-methoxyphenyl)-3-(4-methoxyphenyl)-3,4-dihydropyrazol-2-yl]benzenesulfonamide], the concentration giving a half-maximal response (EC50) turned out to be 30 µM.

Consider `COc1ccc(C2=NN(c3cccc(F)c3)C(c3ccc(OC)cc3)C2)cc1` (centres undefined) [2-(3-fluorophenyl)-3,5-bis(4-methoxyphenyl)-3,4-dihydropyrazole], for which the EC50 is 30 µM.

With `COc1ccc(C2=NN(c3ccc(Cl)cc3)C(c3ccccc3F)C2)cc1` (centres undefined) [UNM-0000305863], the EC50 is 30 µM.

On to `COc1ccc(C2CC(c3cccc(C(F)(F)F)c3)=NN2c2ccc(S(N)(=O)=O)cc2)cc1` (centres undefined), for which the EC50 was 30 µM.

For `CN(C)c1ccc(C2CC(c3ccc(F)cc3)=NN2c2ccccc2)cc1` (centres undefined) [UNM-0000305866], the concentration for a half-maximal effect (EC50) is 30 µM. This counts as double-digit micromolar.

Molecule `NS(=O)(=O)c1ccc(N2N=C(c3ccccc3)CC2c2ccccc2Br)cc1` (centres undefined) [4-[3-(2-bromophenyl)-5-phenyl-3,4-dihydropyrazol-2-yl]benzenesulfonamide] registered a half-maximal effective concentration (EC50) of 30 µM.

In the case of `CN(C)c1ccc(C2CC(c3ccc(Cl)cc3)=NN2c2ccccc2)cc1` (centres undefined) [UNM-0000305847], the half-maximal effective concentration (EC50) worked out at 30 µM.

On to `Fc1ccc(C2=NN(c3cccc(Br)c3)C(c3ccccc3)C2)cc1` (centres undefined) [2-(3-bromophenyl)-5-(4-fluorophenyl)-3-phenyl-3,4-dihydropyrazole], for which the half-maximal effective concentration (EC50) was 30 µM.

Molecule `COc1ccc(C2CC(c3ccccc3)=NN2c2cccc(S(N)(=O)=O)c2)cc1` (centres undefined) [3-[3-(4-methoxyphenyl)-5-phenyl-3,4-dihydropyrazol-2-yl]benzenesulfonamide] showed an EC50 of 30 µM.

As for `O=[N+]([O-])c1ccc([N+]2=N[C-](c3ccccc3)CC2c2ccccc2)cc1` (centres undefined), a half-maximal response (EC50) required 30 µM.

With `COc1ccc(C2CC(c3ccccc3)=NN2c2ccc(C(=O)O)cc2)cc1` (centres undefined) [UNM-0000306085], the EC50 is 30 µM. That is a double-digit micromolar value.

Turning to `CN(C)c1ccc(C2CC(c3ccc(Br)cc3)=NN2c2ccccc2)cc1` (centres undefined) [UNM-0000305846], a half-maximal response (EC50) required 30 µM.

Take `NS(=O)(=O)c1ccc(N2N=C(c3ccccc3)CC2c2cccc(Cl)c2)cc1` (centres undefined) [UNM-0000306161]: the EC50 turned out to be 30 µM.

The molecule `O=[N+]([O-])c1cccc(C2C[C-](c3ccc(F)cc3)N=[N+]2c2ccccc2)c1` (centres undefined) [5-(4-fluorophenyl)-3-(3-nitrophenyl)-2-phenyl-3,4-dihydropyrazole] yielded an EC50 of 30 µM.

`FC(F)(F)c1cccc(N2N=C(c3ccc(Cl)cc3)CC2c2ccccc2Cl)c1` (centres undefined) [UNM-0000305859] registered an EC50 of 30 µM.

Molecule `COc1ccc(C2CC(c3ccc(C(F)(F)F)cc3)=NN2c2ccc(S(N)(=O)=O)cc2)cc1` (centres undefined) [4-[3-(4-methoxyphenyl)-5-[4-(trifluoromethyl)phenyl]-3,4-dihydropyrazol-2-yl]benzenesulfonamide] came in with an EC50 of 30 µM.

Regarding `COc1ccc(C2CC(c3ccccc3)=NN2c2ccc(Cl)c(C(=O)O)c2)cc1` (centres undefined), a half-maximal effect (EC50) was put at 30 µM.

`COc1ccc(C2CC(c3ccncc3)=NN2c2ccc(S(N)(=O)=O)cc2)cc1` (centres undefined) showed an EC50 of 30 µM.

As to `NS(=O)(=O)c1ccc(N2N=C(c3ccccc3)CC2c2ccccc2)cc1` (centres undefined) [4-(3,5-diphenyl-3,4-dihydropyrazol-2-yl)benzenesulfonamide], the EC50 came to 30 µM.

Consider `COc1ccc(C2CC(c3cccc(Br)c3)=NN2c2ccc(S(N)(=O)=O)cc2)cc1` (centres undefined) [UNM-0000306113], for which the EC50 came to 30 µM.

`CCc1ccc(C2=NN(c3ccc(S(N)(=O)=O)cc3)C(c3ccc(F)cc3)C2)cc1` (centres undefined) displayed a half-maximal effective concentration (EC50) of 30 µM.

For the molecule `O=[N+]([O-])c1ccc([N+]2=N[C-](c3ccccc3)CC2c2ccc(O)cc2)cc1` (centres undefined) [UNM-0000305838], the EC50 was found to be 30 µM.

Consider `COc1ccccc1C1CC(c2ccccc2)=NN1c1ccc(S(N)(=O)=O)cc1` (centres undefined) [4-[3-(2-methoxyphenyl)-5-phenyl-3,4-dihydropyrazol-2-yl]benzenesulfonamide], for which the EC50 was determined as 30 µM.

For `NS(=O)(=O)c1ccc(N2N=C(c3ccc(Br)cc3)CC2c2ccc(F)cc2)cc1` (centres undefined) [4-[5-(4-bromophenyl)-3-(4-fluorophenyl)-3,4-dihydropyrazol-2-yl]benzenesulfonamide], it took 0.014 µM to reach a half-maximal effect (EC50).

In turn, `COc1ccc(C2CC(c3ccccc3)=NN2c2ccc(C(N)=O)cc2)cc1` (centres undefined) [UNM-0000305870] had an EC50 of 30 µM.

Take `COc1ccc(C2CC(c3ccc(Br)cc3)=NN2c2ccccc2Cl)cc1` (centres undefined) [UNM-0000305832]: the EC50 amounted to 30 µM. This lies in the double-digit micromolar range.

Molecule `COc1ccc(C2CC(C3CCCCC3)=NN2c2ccc(S(N)(=O)=O)cc2)cc1` (centres undefined) [4-[5-cyclohexyl-3-(4-methoxyphenyl)-3,4-dihydropyrazol-2-yl]benzenesulfonamide] returned an EC50 of 30 µM.

In the case of `Cc1ccccc1N1N=C(c2ccccc2)CC1c1ccc(N(C)C)cc1` (centres undefined) [N,N-dimethyl-4-[2-(2-methylphenyl)-5-phenyl-3,4-dihydropyrazol-3-yl]aniline], the EC50 worked out at 30 µM. That is a double-digit micromolar value.

`COc1ccc(C2=NN(c3cccc(F)c3)C(c3ccc(Cl)cc3)C2)cc1` (centres undefined) [3-(4-chlorophenyl)-2-(3-fluorophenyl)-5-(4-methoxyphenyl)-3,4-dihydropyrazole] displayed an EC50 of 30 µM.

For the molecule `COc1ccc(C2CC(c3ccc(C)cc3)=NN2c2ccc(S(N)(=O)=O)cc2)cc1` (centres undefined), the EC50 is 30 µM.

As to `Cc1cccc(N2N=C(c3ccccc3)CC2c2ccccc2)c1` (centres undefined) [UNM-0000305835], the EC50 was determined as 30 µM.

With `CN(C)c1ccc(C2CC(c3ccccc3)=NN2c2ccccc2)cc1` (centres undefined) [4-(2,5-diphenyl-3,4-dihydropyrazol-3-yl)-N,N-dimethylaniline], the midpoint of the response, the EC50, lay at 30 µM.

The molecule `O=[N+]([O-])c1cccc(C2C[C-](c3ccccc3)N=[N+]2c2ccccc2)c1` (centres undefined) [UNM-0000305857] came in with a concentration for a half-maximal effect (EC50) of 30 µM.

Take `COc1ccc(C2CC(c3cccc(Cl)c3)=NN2c2ccc(S(N)(=O)=O)cc2)cc1` (centres undefined) [UNM-0000306134]: the EC50 came out at 30 µM. This lies in the double-digit micromolar range.

Consider `COc1ccc(C2CC(c3ccccc3)=NN2c2ccc(Cl)c(C(=O)O)c2)cc1OC` (centres undefined) [2-chloro-5-[3-(3,4-dimethoxyphenyl)-5-phenyl-3,4-dihydropyrazol-2-yl]benzoic acid], for which the midpoint of the response, the EC50, lay at 30 µM.

As for `O=S(=O)(c1ccc(N2N=C(c3ccccc3)CC2c2ccccc2)cc1)C(F)F` (centres undefined), a half-maximal effect (EC50) was put at 30 µM.

Regarding `NS(=O)(=O)c1ccc(N2N=C(c3ccc(Cl)cc3)CC2c2ccccc2)cc1` (centres undefined), the EC50 is 30 µM.

Turning to `COc1ccccc1C1CC(c2ccccc2)=NN1c1ccccc1` (centres undefined), the EC50 was determined as 30 µM. In other words, the double-digit micromolar range.

`Cc1onc(-c2ccccc2)c1-c1ccc(S(N)(=O)=O)cc1` showed an EC50 of 30 µM.

The molecule `COc1ccc(C2CC(c3ccsc3)=NN2c2ccc(S(N)(=O)=O)cc2)cc1` (centres undefined) [4-[3-(4-methoxyphenyl)-5-thiophen-3-yl-3,4-dihydropyrazol-2-yl]benzenesulfonamide] came in with an EC50 of 30 µM.

On to `CC(=O)Oc1ccc(C2=NN(c3ccccc3)C(c3ccccc3)C2)cc1` (centres undefined), for which the EC50 amounted to 5.65 µM.

As for `COc1ccc(C2=NN(c3ccccc3)C(c3ccc(Cl)cc3)C2)cc1` (centres undefined) [UNM-0000305833], the EC50 was 30 µM.

With `COc1ccc(C2CC(c3ccc(Br)cc3)=NN2c2ccc(S(N)(=O)=O)cc2)cc1` (centres undefined) [UNM-0000306138], the EC50 worked out at 30 µM.
